Literature values in publication PMC8463260 (Acta Pharmaceutica Sinica. B, 2020).

Columns and labels:
[1] = in vitro bioactivity compared to native insulin; ref [26],[28]-[31]
[2] = multimerization and serum albumin association; ref [5],[6]

Row | Substance | in vitro potency, fold lower vs native insulin [1] | in vivo half-life [2] [h]
1 | insulin degludec | 6–8 fold | –
2 | insulin detemir: long-acting insulin derivative with hydrophobic modification on B29 lysine | – | 20 to 48
